For 18 compounds, FGFR1/FGFR3 and FGFR4/FGFR3 results are on record in patent publication US11173162B2, “Bicyclic heterocycles as FGFR4 inhibitors” (Incyte Corporation, priority 2015, dated 2021).

Where only a bound is given, the exact number is not on record here.

The subject of this assay is FGFR3 enzyme. Description: FGFR Enzymatic Assay (FRET peptide phosphorylation), FGFR3. Type of assay: biochemical. The settings on record: IC50 ratio showing FGFR3 selectivity; Table 2A, pre-incubated for 4 hours. The method, then:
The inhibitor potency of the exemplified compounds was measured in an enzyme assay that measures peptide phosphorylation using FRET measurements to detect product formation. Inhibitors were serially diluted in DMSO and a volume of 0.5 μL was transferred to the wells of a 384-well plate.
GraphPad prism3 was used to analyze the data.

For `COc1cc(OC)c(F)c(N2Cc3cnc(-c4cn(C5CCN(C)C5)nc4C)cc3C3(CC3)C2=O)c1F` (stereo not drawn) [Example 163, 2′-(2,6-difluoro-3,5-dimethoxyphenyl)-6′-(3-methyl-1-(1-methylpyrrolidin-3-yl)-1H-pyrazol-4-yl)-1′H-spiro[cyclopropane-1,4′-[2,7]naphthyridin]-3′(2′H)-one], the FGFR1/FGFR3 is over 3 and the FGFR4/FGFR3 is over 3.

Regarding `COc1cc(OC)c(F)c(N2Cc3cnc(-c4cn(CCN(C)C)nc4C)cc3C3(CC3)C2=O)c1F` [Example 164, 2′-(2,6-difluoro-3,5-dimethoxyphenyl)-6′-(1-(2-(dimethylamino)ethyl)-3-methyl-1H-pyrazol-4-yl)-1′H-spiro[cyclopropane-1,4′-[2,7]naphthyridin]-3′(2′H)-one], the FGFR1/FGFR3 was over 3 and the FGFR4/FGFR3 was over 3.

As for `COc1cc(OC)c(F)c(N2Cc3cnc(-c4cn(CCC5CCNCC5)nc4C)cc3C3(CC3)C2=O)c1F` [Example 165, 2′-(2,6-difluoro-3,5-dimethoxyphenyl)-6′-(3-methyl-1-(2-(piperidin-4-yl)ethyl)-1H-pyrazol-4-yl)-1′H-spiro[cyclopropane-1,4′-[2,7]naphthyridin]-3′(2′H)-one], the FGFR1/FGFR3 is on record as over 3 and the FGFR4/FGFR3 was over 3.

With `COc1cc(OC)c(F)c(N2Cc3cnc(-c4cnn(CC5CN(S(C)(=O)=O)C5)c4)cc3C3(CC3)C2=O)c1F` [Example 166, 2′-(2,6-difluoro-3,5-dimethoxyphenyl)-6′-(1-((1-(methylsulfonyl)azetidin-3-yl)methyl)-1H-pyrazol-4-yl)-1′H-spiro[cyclopropane-1,4′-[2,7]naphthyridin]-3′(2′H)-one], the FGFR1/FGFR3 is over 3 and the FGFR4/FGFR3 is reported as over 3.

As to `COc1cc(OC)c(F)c(N2Cc3cnc(-c4cnn(CC5CN(C(C)=O)C5)c4)cc3C3(CC3)C2=O)c1F` [Example 167, 6′-(1-((1-acetylazetidin-3-yl)methyl)-1H-pyrazol-4-yl)-2′-(2,6-difluoro-3,5-dimethoxyphenyl)-1′H-spiro[cyclopropane-1,4′-[2,7]naphthyridin]-3′(2′H)-one], the FGFR1/FGFR3 is over 3 and the FGFR4/FGFR3 is on record as over 3.

In the case of `CCN1C(=O)N(c2c(F)c(OC)cc(OC)c2F)Cc2cnc(-c3cn(CC)nc3C)cc21` [Example 168, 3-(2,6-difluoro-3,5-dimethoxyphenyl)-1-ethyl-7-(1-ethyl-3-methyl-1H-pyrazol-4-yl)-3,4-dihydropyrido[4,3-d]pyrimidin-2(1H)-one], the FGFR1/FGFR3 is given as over 5 and the FGFR4/FGFR3 is listed as over 3.

Consider `CCN1C(=O)N(c2c(F)c(OC)cc(OC)c2F)Cc2cnc(-c3cnn(C)c3)cc21` [Example 169, 3-(2,6-difluoro-3,5-dimethoxyphenyl)-1-ethyl-7-(1-methyl-1H-pyrazol-4-yl)-3,4-dihydropyrido[4,3-d]pyrimidin-2(1H)-one], for which the FGFR1/FGFR3 is over 3 and the FGFR4/FGFR3 is listed as over 5.

For `CCNC(=O)c1ccc(-c2cc3c(cn2)CN(c2c(F)c(OC)cc(OC)c2F)C(=O)N3CC)cn1` [Example 175, 5-(3-(2,6-difluoro-3,5-dimethoxyphenyl)-1-ethyl-2-oxo-1,2,3,4-tetrahydropyrido[4,3-d]pyrimidin-7-yl)-N-ethylpicolinamide], the FGFR1/FGFR3 is listed as over 10 and the FGFR4/FGFR3 is over 5.

As to `CCN1C(=O)N(c2c(F)c(OC)cc(OC)c2F)Cc2cnc(-c3ccc(C(=O)NC4CC4)nc3)cc21` [Example 176, N-cyclopropyl-5-(3-(2,6-difluoro-3,5-dimethoxyphenyl)-1-ethyl-2-oxo-1,2,3,4-tetrahydropyrido[4,3-d]pyrimidin-7-yl)picolinamide], the FGFR1/FGFR3 was over 10 and the FGFR4/FGFR3 is over 5.

Turning to `CCN1C(=O)N(c2c(F)c(OC)cc(OC)c2F)Cc2cnc(-c3ccc(C(=O)NCCO)nc3)cc21` [Example 177, 5-(3-(2,6-difluoro-3,5-dimethoxyphenyl)-1-ethyl-2-oxo-1,2,3,4-tetrahydropyrido[4,3-d]pyrimidin-7-yl)-N-(2-hydroxyethyl)picolinamide], the FGFR1/FGFR3 was over 5 and the FGFR4/FGFR3 is recorded as over 10.

For the compound `CCN1C(=O)N(c2c(F)c(OC)cc(OC)c2F)Cc2cnc(-c3ccc(C(=O)NC(C)C)nc3)cc21` [Example 178, 5-(3-(2,6-difluoro-3,5-dimethoxyphenyl)-1-ethyl-2-oxo-1,2,3,4-tetrahydropyrido[4,3-d]pyrimidin-7-yl)-N-isopropylpicolinamide], the FGFR1/FGFR3 is listed as over 5 and the FGFR4/FGFR3 is listed as over 5.

Take `CCCNC(=O)c1ccc(-c2cc3c(cn2)CN(c2c(F)c(OC)cc(OC)c2F)C(=O)N3CC)cn1` [Example 179, 5-(3-(2,6-difluoro-3,5-dimethoxyphenyl)-1-ethyl-2-oxo-1,2,3,4-tetrahydropyrido[4,3-d]pyrimidin-7-yl)-N-propylpicolinamide]: the FGFR1/FGFR3 is listed as over 5 and the FGFR4/FGFR3 is given as over 10.

Take `CCN1C(=O)N(c2c(F)c(OC)cc(OC)c2F)Cc2cnc(-c3ccc(CC#N)cc3)cc21` [Example 180, 2-(4-(3-(2,6-difluoro-3,5-dimethoxyphenyl)-1-ethyl-2-oxo-1,2,3,4-tetrahydropyrido[4,3-d]pyrimidin-7-yl)phenyl)acetonitrile]: the FGFR1/FGFR3 was over 5 and the FGFR4/FGFR3 is reported as over 5.

For the compound `CCN1C(=O)N(c2c(F)c(OC)cc(OC)c2F)Cc2cnc(-c3ccc(C4(C#N)CCC4)cc3)cc21` [Example 181, 1-(4-(3-(2,6-difluoro-3,5-dimethoxyphenyl)-1-ethyl-2-oxo-1,2,3,4-tetrahydropyrido[4,3-d]pyrimidin-7-yl)phenyl)cyclobutanecarbonitrile], the FGFR1/FGFR3 is reported as over 5 and the FGFR4/FGFR3 was over 10.

For `CCN1C(=O)N(c2c(F)c(OC)cc(OC)c2F)Cc2cnc(-c3ccc(N4CCOCC4)nc3)cc21` [Example 182, 3-(2,6-difluoro-3,5-dimethoxyphenyl)-1-ethyl-7-(6-morpholinopyridin-3-yl)-3,4-dihydropyrido[4,3-d]pyrimidin-2(1H)-one], the FGFR1/FGFR3 is reported as over 5 and the FGFR4/FGFR3 is reported as over 5.

With `CCN1C(=O)N(c2c(F)c(OC)cc(OC)c2F)Cc2cnc(-c3ccc(C4(C#N)CC4)cc3)cc21` [Example 183, 1-(4-(3-(2,6-difluoro-3,5-dimethoxyphenyl)-1-ethyl-2-oxo-1,2,3,4-tetrahydropyrido[4,3-d]pyrimidin-7-yl)phenyl)cyclopropanecarbonitrile], the FGFR1/FGFR3 is over 3 and the FGFR4/FGFR3 is over 10.

For `CCN1C(=O)N(c2c(F)c(OC)cc(OC)c2F)Cc2cnc(-c3ccc(C(N)=O)nc3)cc21` [Example 184, 5-(3-(2,6-difluoro-3,5-dimethoxyphenyl)-1-ethyl-2-oxo-1,2,3,4-tetrahydropyrido[4,3-d]pyrimidin-7-yl)picolinamide], the FGFR1/FGFR3 is given as over 5 and the FGFR4/FGFR3 is on record as over 5.

Regarding `COc1cc(OC)c(F)c(N2Cc3cnc(-c4ccncc4)cc3C3(CC3)C2=O)c1F` [Example 185, 2′-(2,6-difluoro-3,5-dimethoxyphenyl)-6′-(pyridin-4-yl)-1′H-spiro[cyclopropane-1,4′-[2,7]naphthyridin]-3′(2′H)-one], the FGFR1/FGFR3 is given as over 3 and the FGFR4/FGFR3 is reported as over 3.
